Here are results for five molecules from patent US20190374618A1, “FIBRONECTIN OR ILK INHIBITORS FOR USE IN THE TREATMENT OF LEUKEMIA” (Chemotherapeutisches Forschungsinstitut Georg-Speyer-Haus, priority 2016, published 2019).

The conditions of series [1]: patients, cardiovascular toxicity reference; cited from earlier work.
The subject of series [2] is BCR-ABL1^T315I+ CML. In words: intravenous fibronectin on days 9, 10 and 12 post transplantation, retroviral transduction/transplantation model of CML. The class given is in vivo, mouse (Balb/c). The following applies: three intravenous injections on days 9, 10 and 12 post transplantation, BCR-ABL1T315I+ CML vs vehicle-treated mice, FIG. 8. The text has this:
FIG. 8: Kaplan-Meier survival curve of mice intravenously transplanted with BCR-ABL1 (gray colours) or BCR-ABL1T315I (blue colours)-transduced bone marrow treated with vehicle or FN on days 9, 10 and 12 after transplantation.
(§1) The inventors have shown by immunofluorescence (FIG. 5) and immunohistochemistry of bone sections of mice transplanted with empty vector-transduced cells, or mice with BCR-ABL1^WT+ or BCR-ABL1^T315I+ CML-like myeloproliferative neoplasia (FIG. 6), that BCR-ABL1^T315I+ cells deposit less fibronectin in their environment than BCR-ABL1^WT+ cells, which is likely also reflected by their differences in their interaction with the BMM.
(§2) Our retroviral stock was generated and bone marrow transplantation experiments were performed as described earlier (9, 14, 16). In general, we injected between 2.25 and 2.5×10^5 transduced cells into female irradiated (750 cGy) Balb/c recipient mice. The T315I point mutation in BCR-ABL1 was introduced by site-directed mutagenesis in the open reading frame of the MSCV IRES GFP vector.
(§3) Therapeutic application of fibronectin was performed as follows: intravenous application of 200 μg bovine fibronectin (in HBSS) on days 9, 10 and 12 post transplantation; for vehicle control treatments, 200 μl of HBSS (equal volume to fibronectin dose) was administered. […]

Series [3] relates to BCR-ABL1^T315I+ CML. In words: intrafemoral co-injection of fibronectin with leukemia-initiating cells, retroviral transduction/transplantation model of CML. The class given is in vivo, mouse (Balb/c).
Source text: FIG. 7: White blood cell counts per μl in peripheral blood (a) and survival (b) of mice intravenously transplanted (no FN) or intrafemorally co-transplanted with BCR-ABL1 (gray colors)- or BCR-ABL1T315I (blue colors)-transduced bone marrow and vehicle or FN.
as §1, §2, §3

The next series has as its system LSC in CML. The following applies: but not AML; cited from earlier work.

Take `Cc1nc(Nc2ncc(C(=O)Nc3c(C)cccc3Cl)s2)cc(N2CCN(CCO)CC2)n1` [dasatinib]: the adverse events result in series [1] is reported as “frequently associated with severe adverse events”.

As to `Cc1cn(-c2cc(NC(=O)c3ccc(C)c(Nc4nccc(-c5cccnc5)n4)c3)cc(C(F)(F)F)c2)cn1` [nilotinib], the adverse events result in series [1] is “frequently associated with severe adverse events”. Turning to `Cc1ccc(C(=O)Nc2ccc(CN3CCN(C)CC3)c(C(F)(F)F)c2)cc1C#Cc1cnc2cccnn12` [ponatinib], in series [1], the adverse events entry was “frequently associated with severe adverse events”.

As for “fibronectin: Murine fibronectin (Abcam ab92784) for intrafemoral injection; lyophilized bovine fibronectin (Thermo Fisher 33010018) for intravenous application”, the survival entry in the series on BCR-ABL1^T315I+ CML [2] is “significant prolongation of survival”; with BCR-ABL1^T315I+ CML [3] (recipients of BCR-ABL1T315I-transduced bone marrow, intrafemoral co-injection vs vehicle, FIG. 7b) it was “prolonged survival”. Also, the “tumor burden (white blood cell counts per μl in peripheral blood)” value in the series on BCR-ABL1^T315I+ CML [3] (intrafemoral co-injection of fibronectin with BCR-ABL1WT+ or BCR-ABL1T315I+ leukemia-initiating cells vs vehicle, FIG. 7a) was “significantly decreased the tumor burden”.

B1: parathyroid hormone: the most potent regulator of bone turnover (protein, UniProt P01270 32-115, looked up)
Parathyroid hormone: SVSEIQLMHNLGKHLNSMERVEWLRKKLQDVHNFVALGAPLAPRDAGSQRPRKKEDNVLVESHEKSLGEADKADVNVLTKAKSQ
modifications: Parathyroid hormone
On to B1, for which the LSC number result with LSC in CML is “reduction of LSC in CML”.
